Experimental data: US20070243254A1, “NOVEL DRUG COMPOSITIONS AND DOSAGE FORMS OF TOPIRAMATE” (priority 2002, published 2007)
≈ marks a conversion by molar mass, not a printed value. Like-named read-outs stand apart in the source and are kept apart here.

How the values were obtained:
[1] = cited from earlier work
[2] = equilibrium solubility of topiramate in de-ionized water and aqueous surfactant solutions; assay type: physicochemical; conditions: for solubility: de-ionized water
Procedure: As defined herein, the solubility of a pharmaceutical agent is determined by adding the pharmaceutical agent to stirred or agitated de-ionized water maintained in a constant temperature bath at a temperature of 37° C. until no more pharmaceutical agent dissolves. The resulting solution saturated with the pharmaceutical agent is then filtered, typically under pressure through a 0.8-micron Millipore filter, and the concentration of the pharmaceutical agent in the solution is measured by any appropriate analytical method including gravimetric, ultraviolet spectrophometry, chromatography, and the like. The solubility of the pharmaceutical agent is measured at equilibrium.
A drug composition of the present invention was prepared as follows. Aqueous solutions of five surfactants were prepared. The selected surfactants were four grades of ethylene oxide/propylene oxide/ethylene oxide (LUTROL grades F127, F87, F108, and F68) and PEG-40 stearate (MYRJ 52). Solutions were made at concentrations of 1, 5, and 15 weight percent. The aqueous surfactant blends solutions were chilled as necessary to promote complete dissolution of the surfactant prior to drug solubility studies.
The aqueous surfactant solutions were equilibrated to constant temperature in a 37° C. water bath. Then, neat topiramate drug was added slowly with stirring in approximately 10 mg increments to the surfactant solutions until no more drug dissolved. A control sample of drug dissolved in de-ionized water without surfactant was included for comparison purposes. The resulting saturated solutions of drug were filtered through 0.8 micron filters and analyzed for drug concentration by refractive index chromatography. The resulting solubility values were plotted as a function of both surfactant concentration and the hydrophilic-lipophilic balance value of each surfactant. FIG. 6 was constructed from the solubility values obtained and HLB data for each surfactant utilized.

[3] = cited from earlier work; remark: listed apart in the source

## CC1(C)O[C@@H]2[C@@H](CO[C@@]3(COS(N)(=O)=O)OC(C)(C)O[C@@H]23)O1 [topiramate, 2,3:4,5-bis-O-(1-methylethylidene)-β-D-fructopyranose sulfamate]
[1]; in vivo
  dose proportionality of pharmacokinetics: linear
  effect of food on pharmacokinetics: not significantly affected by food
  excretion: excreted largely through the urine
  mean elimination half life: about 21 hours
  metabolism: not extensively metabolized
[1]; oral, immediate release dosage form
  time to peak plasma drug concentrations: approximately 2 hours
[2]; LUTROL F127, F87, F108, F68, MYRJ 52 at 1, 5, 15 weight percent, 37° C.
  solubility in water in presence of surfactant: increased by each surfactant
[2]; water, thermodynamic from solid, without surfactant, 37° C., read-out: solubility in de-ionized water
  solubility: ~12 mg/mL (≈ 35.4 mM)
[2]; read-out: solubility of neat topiramate (range)
  solubility: 9.8 to 13 mg/mL (≈ 28.9 to 38.3 mM)
[3]; acetone, dimethylsulfoxide, ethanol
  solubility in organic solvents: soluble in acetone, dimethylsulfoxide and ethanol
[3]; alkaline solutions containing sodium hydroxide or sodium phosphate
  solubility in alkaline solutions: soluble in alkaline solutions
[3]; room temperature
  solubility of topiramate in water: about 9.8 mg/ml
